From publication PMC11345841, “Exploring 2-Sulfonylpyrimidine Warheads as Acrylamide Surrogates for Targeted Covalent Inhibition: A BTK Story” (Journal of Medicinal Chemistry, 2024)
Where two headings read alike, the source gives them in different places.

What was measured:
[1] = target: T1, ABL1(E255K)-phosphorylated (Homo sapiens, UniProt P00519, E255K); test: KINOMEscan ScanTK; format: binding; settings: for difference in %Control from reference Ib at 1 µM: read-out: % difference (compound - Ib %Control)
T1 construct: purchased Eurofins DiscoverX KINOMEscan (scanTK)

[2] = target: T2, ABL1(H396P)-nonphosphorylated (Homo sapiens, UniProt P00519, H396P); test: KINOMEscan ScanTK; format: binding
T2 construct: purchased Eurofins DiscoverX KINOMEscan (scanTK)

[3] = target: T3, ABL1(H396P)-phosphorylated (Homo sapiens, UniProt P00519, H396P); test: KINOMEscan ScanTK; format: binding
T3 construct: purchased Eurofins DiscoverX KINOMEscan (scanTK)

[4] = target: T4, EPHA2 (Homo sapiens, UniProt P29317); test: KINOMEscan ScanTK; format: binding
T4 construct: purchased Eurofins DiscoverX KINOMEscan (scanTK)
T4 sequence (P29317 24-976): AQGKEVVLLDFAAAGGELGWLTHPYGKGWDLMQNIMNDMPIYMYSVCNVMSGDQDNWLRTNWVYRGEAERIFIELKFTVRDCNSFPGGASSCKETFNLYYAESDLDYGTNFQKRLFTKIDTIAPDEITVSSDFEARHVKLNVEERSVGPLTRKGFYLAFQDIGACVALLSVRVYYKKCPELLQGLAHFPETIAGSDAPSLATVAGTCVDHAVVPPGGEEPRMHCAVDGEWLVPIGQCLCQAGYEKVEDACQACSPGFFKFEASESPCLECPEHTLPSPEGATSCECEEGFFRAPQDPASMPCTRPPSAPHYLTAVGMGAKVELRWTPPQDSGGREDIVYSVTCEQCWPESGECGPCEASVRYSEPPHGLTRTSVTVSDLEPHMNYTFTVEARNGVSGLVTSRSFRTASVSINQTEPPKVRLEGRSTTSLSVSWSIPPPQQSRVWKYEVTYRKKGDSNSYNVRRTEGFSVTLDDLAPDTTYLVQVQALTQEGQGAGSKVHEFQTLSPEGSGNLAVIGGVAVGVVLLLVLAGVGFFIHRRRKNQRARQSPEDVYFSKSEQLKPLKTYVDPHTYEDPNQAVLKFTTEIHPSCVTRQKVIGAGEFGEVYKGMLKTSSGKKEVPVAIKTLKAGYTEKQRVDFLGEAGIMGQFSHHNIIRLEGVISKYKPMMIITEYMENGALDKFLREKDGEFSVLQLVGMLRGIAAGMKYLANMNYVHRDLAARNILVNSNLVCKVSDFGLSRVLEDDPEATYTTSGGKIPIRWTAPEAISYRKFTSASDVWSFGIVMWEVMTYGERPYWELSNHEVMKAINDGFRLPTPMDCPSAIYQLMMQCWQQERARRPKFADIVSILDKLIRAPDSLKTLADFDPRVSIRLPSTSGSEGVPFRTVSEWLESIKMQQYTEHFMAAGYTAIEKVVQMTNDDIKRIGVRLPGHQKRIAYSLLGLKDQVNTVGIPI

[5] = target: T5, EPHA4 (Homo sapiens, UniProt P54764); test: KINOMEscan ScanTK; format: binding
T5 construct: purchased Eurofins DiscoverX KINOMEscan (scanTK)

[6] = target: T6, FLT4 (Homo sapiens, UniProt P35916); test: KINOMEscan ScanTK; format: binding
T6 construct: purchased Eurofins DiscoverX KINOMEscan (scanTK)
T6 sequence (P35916 25-1363): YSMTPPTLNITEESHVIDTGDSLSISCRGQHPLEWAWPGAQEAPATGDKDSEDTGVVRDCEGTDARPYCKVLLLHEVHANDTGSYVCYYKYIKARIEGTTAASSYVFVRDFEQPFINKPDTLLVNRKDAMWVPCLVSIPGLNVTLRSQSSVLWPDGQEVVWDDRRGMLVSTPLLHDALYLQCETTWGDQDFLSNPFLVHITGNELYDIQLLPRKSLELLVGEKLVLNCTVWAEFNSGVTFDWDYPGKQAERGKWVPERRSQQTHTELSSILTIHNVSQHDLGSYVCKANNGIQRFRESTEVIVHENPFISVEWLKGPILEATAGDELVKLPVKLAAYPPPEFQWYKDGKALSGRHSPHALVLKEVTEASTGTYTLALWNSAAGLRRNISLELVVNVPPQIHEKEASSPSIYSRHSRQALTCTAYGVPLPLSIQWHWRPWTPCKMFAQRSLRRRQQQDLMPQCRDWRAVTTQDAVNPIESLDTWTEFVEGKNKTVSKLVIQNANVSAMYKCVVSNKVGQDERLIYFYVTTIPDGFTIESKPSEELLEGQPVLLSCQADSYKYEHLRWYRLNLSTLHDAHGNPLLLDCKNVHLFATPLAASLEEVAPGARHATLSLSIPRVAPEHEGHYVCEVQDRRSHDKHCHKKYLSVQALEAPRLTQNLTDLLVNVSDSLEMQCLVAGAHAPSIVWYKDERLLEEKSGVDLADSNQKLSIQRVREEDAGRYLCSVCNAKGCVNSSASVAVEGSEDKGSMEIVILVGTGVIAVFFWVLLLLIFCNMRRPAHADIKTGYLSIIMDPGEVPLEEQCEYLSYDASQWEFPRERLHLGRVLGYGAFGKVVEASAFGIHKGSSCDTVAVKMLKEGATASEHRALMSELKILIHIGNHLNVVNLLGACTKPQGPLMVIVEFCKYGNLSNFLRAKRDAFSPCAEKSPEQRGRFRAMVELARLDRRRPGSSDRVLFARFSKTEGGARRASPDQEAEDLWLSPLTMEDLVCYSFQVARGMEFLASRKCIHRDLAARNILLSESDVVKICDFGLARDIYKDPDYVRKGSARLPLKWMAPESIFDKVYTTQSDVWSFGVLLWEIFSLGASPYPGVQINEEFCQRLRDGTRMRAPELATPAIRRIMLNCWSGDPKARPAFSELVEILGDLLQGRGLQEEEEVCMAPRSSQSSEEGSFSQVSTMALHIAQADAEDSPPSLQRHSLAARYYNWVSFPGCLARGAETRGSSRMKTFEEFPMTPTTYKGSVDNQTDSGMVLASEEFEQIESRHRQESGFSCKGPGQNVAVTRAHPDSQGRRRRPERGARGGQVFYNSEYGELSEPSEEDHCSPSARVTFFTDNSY

[7] = target: T7, JAK3(JH1domain-catalytic) (Homo sapiens, UniProt P52333); test: KINOMEscan ScanTK; format: binding; settings: for remaining binding at 1 µM / difference in %Control from compound Ib at 1 µM: JAK3(JH1domain-catalytic); for inhibition at 1 µM: ScanTK
T7 construct: JAK3(JH1domain-catalytic); purchased Eurofins DiscoverX KINOMEscan (scanTK)
T7 sequence (P52333 822-1124 limits assumed): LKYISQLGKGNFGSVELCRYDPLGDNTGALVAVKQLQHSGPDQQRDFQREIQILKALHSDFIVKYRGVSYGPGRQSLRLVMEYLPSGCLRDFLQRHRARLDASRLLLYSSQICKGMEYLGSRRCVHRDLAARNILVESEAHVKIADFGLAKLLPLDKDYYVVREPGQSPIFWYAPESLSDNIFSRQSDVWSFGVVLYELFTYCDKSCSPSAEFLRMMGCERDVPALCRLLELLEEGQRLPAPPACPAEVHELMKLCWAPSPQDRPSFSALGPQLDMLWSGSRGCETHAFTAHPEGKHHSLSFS

[8] = target: T8, KIT (Homo sapiens, UniProt P10721); test: KINOMEscan ScanTK; format: binding
T8 construct: purchased Eurofins DiscoverX KINOMEscan (scanTK)
T8 sequence (P10721 26-976): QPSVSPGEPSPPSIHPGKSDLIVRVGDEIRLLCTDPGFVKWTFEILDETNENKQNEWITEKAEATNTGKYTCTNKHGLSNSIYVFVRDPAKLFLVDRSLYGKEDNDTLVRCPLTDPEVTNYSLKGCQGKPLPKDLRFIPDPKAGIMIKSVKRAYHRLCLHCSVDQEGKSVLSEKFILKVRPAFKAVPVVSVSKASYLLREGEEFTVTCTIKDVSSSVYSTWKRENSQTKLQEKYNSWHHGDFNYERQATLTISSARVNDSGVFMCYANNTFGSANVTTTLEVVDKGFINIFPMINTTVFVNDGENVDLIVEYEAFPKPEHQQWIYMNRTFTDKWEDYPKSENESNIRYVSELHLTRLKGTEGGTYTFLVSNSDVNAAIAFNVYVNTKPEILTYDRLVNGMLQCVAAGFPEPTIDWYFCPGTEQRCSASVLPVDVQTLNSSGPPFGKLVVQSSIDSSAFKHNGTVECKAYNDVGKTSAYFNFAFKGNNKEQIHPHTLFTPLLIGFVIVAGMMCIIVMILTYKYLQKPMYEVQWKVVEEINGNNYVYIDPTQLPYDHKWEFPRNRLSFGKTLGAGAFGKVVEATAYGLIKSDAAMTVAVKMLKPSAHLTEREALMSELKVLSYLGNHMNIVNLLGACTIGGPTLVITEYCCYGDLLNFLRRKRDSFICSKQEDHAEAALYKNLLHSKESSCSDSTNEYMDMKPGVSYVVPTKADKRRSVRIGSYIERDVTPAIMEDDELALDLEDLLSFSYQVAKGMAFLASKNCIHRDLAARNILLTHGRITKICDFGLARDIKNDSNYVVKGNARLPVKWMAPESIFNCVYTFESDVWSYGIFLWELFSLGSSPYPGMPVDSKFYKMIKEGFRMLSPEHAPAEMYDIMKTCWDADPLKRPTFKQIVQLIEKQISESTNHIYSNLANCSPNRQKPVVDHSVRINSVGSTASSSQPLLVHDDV

[9] = target: T9, MET (Homo sapiens, UniProt P08581); test: KINOMEscan ScanTK; format: binding
T9 construct: purchased Eurofins DiscoverX KINOMEscan (scanTK)

[10] = target: T10, MUSK (Homo sapiens, UniProt O15146); test: KINOMEscan ScanTK; format: binding
T10 construct: purchased Eurofins DiscoverX KINOMEscan (scanTK)
T10 sequence (O15146 24-869): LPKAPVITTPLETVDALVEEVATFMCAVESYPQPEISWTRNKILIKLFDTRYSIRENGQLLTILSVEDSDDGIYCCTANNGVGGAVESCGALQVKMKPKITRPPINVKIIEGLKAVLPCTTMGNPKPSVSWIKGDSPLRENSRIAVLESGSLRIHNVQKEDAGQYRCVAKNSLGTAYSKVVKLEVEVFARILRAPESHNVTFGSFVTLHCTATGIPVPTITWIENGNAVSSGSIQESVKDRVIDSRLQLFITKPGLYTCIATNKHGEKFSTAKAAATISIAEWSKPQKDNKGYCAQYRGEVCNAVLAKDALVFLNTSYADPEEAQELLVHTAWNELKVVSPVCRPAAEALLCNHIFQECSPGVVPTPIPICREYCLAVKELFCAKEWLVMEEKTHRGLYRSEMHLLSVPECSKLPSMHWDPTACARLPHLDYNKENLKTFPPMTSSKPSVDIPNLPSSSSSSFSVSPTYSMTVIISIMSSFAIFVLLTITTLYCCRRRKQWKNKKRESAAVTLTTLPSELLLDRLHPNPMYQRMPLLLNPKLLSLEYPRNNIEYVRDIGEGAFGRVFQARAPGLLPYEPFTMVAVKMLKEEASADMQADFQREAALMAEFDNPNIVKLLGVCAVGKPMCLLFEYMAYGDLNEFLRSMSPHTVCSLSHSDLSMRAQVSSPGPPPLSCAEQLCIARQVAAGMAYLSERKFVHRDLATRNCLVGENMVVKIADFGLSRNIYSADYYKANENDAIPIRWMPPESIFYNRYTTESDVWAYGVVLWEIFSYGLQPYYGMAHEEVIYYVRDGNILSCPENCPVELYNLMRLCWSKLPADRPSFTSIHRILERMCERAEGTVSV

[11] = target: T11, TRKB (Homo sapiens, UniProt Q16620); test: KINOMEscan ScanTK; format: binding
T11 construct: purchased Eurofins DiscoverX KINOMEscan (scanTK)
T11 sequence (Q16620 32-822): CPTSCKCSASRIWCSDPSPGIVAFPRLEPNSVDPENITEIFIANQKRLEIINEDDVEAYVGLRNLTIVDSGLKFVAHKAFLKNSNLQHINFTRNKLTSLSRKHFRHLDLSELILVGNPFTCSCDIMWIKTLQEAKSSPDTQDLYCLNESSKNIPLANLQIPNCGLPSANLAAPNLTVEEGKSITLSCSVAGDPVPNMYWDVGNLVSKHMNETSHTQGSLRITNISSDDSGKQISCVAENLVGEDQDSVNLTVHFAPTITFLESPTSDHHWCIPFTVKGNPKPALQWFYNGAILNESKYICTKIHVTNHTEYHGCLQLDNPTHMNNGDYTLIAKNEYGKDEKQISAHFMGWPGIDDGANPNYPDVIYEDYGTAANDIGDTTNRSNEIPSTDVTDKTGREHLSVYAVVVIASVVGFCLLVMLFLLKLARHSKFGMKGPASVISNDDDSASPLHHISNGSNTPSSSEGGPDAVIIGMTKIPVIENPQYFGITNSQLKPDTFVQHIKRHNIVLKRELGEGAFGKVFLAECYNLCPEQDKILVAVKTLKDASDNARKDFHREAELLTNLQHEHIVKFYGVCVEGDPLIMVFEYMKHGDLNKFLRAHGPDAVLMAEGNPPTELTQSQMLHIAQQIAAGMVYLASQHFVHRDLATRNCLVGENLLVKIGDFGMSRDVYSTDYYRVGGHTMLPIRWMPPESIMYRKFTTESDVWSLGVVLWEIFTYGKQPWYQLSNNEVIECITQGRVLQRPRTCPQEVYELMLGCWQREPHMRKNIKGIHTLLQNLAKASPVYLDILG

[12] = target: BTK, full length (2–659) (Homo sapiens, UniProt Q06187); test: Kinact/Ki determination, PhosphoSens progress curve analysis; format: biochemical; settings: BTK
Sequence of BTK, full length (2–659) (Q06187 2-659): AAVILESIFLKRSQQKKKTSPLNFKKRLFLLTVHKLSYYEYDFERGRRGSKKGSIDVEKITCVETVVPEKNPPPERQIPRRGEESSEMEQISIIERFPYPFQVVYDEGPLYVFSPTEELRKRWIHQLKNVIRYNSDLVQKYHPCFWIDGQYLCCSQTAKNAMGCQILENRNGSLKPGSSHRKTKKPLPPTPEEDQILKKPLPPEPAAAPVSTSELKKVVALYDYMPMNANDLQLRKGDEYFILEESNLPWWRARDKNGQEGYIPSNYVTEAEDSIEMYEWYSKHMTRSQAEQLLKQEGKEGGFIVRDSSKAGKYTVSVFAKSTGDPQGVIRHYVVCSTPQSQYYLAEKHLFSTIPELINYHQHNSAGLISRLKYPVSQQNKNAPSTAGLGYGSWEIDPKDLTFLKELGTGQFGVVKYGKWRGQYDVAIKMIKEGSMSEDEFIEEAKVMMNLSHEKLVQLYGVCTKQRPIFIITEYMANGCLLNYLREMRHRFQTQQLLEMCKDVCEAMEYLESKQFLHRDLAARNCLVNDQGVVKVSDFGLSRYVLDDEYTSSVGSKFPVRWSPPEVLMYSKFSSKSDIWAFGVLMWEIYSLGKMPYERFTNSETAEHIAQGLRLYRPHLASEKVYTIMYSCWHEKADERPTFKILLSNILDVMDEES
Method: Nonlinear regression was performed using the Solver algorithm in Excel. […] Two-step Kinact/Ki fits were extracted from the progress curve analysis of all compounds against BTK, enabling independent Kinact and Ki determinations.

[13] = target: T12, EGFR(G719S) (Homo sapiens, UniProt P00533, G719S); test: KINOMEscan ScanTK; format: binding
T12 construct: purchased Eurofins DiscoverX KINOMEscan (scanTK)

[14] = @1000nM, TRKB, read-out: %Control
[15] = TRKB, read-out: %Control @1000nM

C=CC(=O)N1CCC[C@@H](n2nc(-c3ccc(Oc4ccccc4)cc3)c3c(N)ncnc32)C1 [Compound 1g, Ibrutinib, reference compound]
remaining binding at 1 µM ([1]; @1000nM, read-out: %Control): 64% | remaining binding at 1 µM ([1]; read-out: %Control @1000nM): 64% | remaining binding at 1 µM ([2]; @1000nM, read-out: %Control): 14% | remaining binding at 1 µM ([2]; read-out: %Control @1000nM): 14% | remaining binding at 1 µM ([3]; @1000nM, read-out: %Control): 80% | remaining binding at 1 µM ([3]; read-out: %Control @1000nM): 80% | remaining binding at 1 µM ([4]; @1000nM, read-out: %Control): 100% | remaining binding at 1 µM ([4]; read-out: %Control @1000nM): 100% | remaining binding at 1 µM ([5]; @1000nM, read-out: %Control): 91% | remaining binding at 1 µM ([5]; read-out: %Control @1000nM): 91% | remaining binding at 1 µM ([6]; @1000nM, read-out: %Control): 27% | remaining binding at 1 µM ([6]; read-out: %Control @1000nM): 27% | remaining binding at 1 µM ([7]; @1000nM, read-out: %Control): 5.5% | remaining binding at 1 µM ([7]; read-out: %Control @1000nM): 5.5% | inhibition at 1 µM [7]: 95% | remaining binding at 1 µM ([8]; @1000nM, read-out: %Control): 41% | remaining binding at 1 µM ([8]; read-out: %Control @1000nM): 41% | remaining binding at 1 µM ([9]; @1000nM, read-out: %Control): 100% | remaining binding at 1 µM ([9]; read-out: %Control @1000nM): 100% | remaining binding at 1 µM ([10]; @1000nM, read-out: %Control): 95% | remaining binding at 1 µM ([10]; read-out: %Control @1000nM): 95% | remaining binding at 1 µM ([11]; read-out: %Control): 92% | remaining binding at 1 µM ([11]; read-out: %Control @1000nM): 92%

Cc1cnc(S(C)(=O)=O)nc1N1CCCC(n2nc(-c3ccc(Oc4ccccc4)cc3)c3c(N)ncnc32)C1 (stereo not drawn) [Compound 8a, 1-(1-(5-Methyl-2-(methylsulfonyl)pyrimidin-4-yl)piperidin-3-yl)-3-(4-phenoxyphenyl)-1H-pyrazolo[3,4-d]pyrimidin-4-amine]
Ki [12]: 9.08 ± 0.41 nM | kinact [12]: 0.00659 ± 0.00019 s⁻¹ | kinact/KI ([12]; read-out: Kinact/Ki): 726000 M⁻¹ s⁻¹ | difference in %Control from reference Ib at 1 µM ([1]; @1000nM): 12% | remaining binding at 1 µM ([1]; @1000nM, read-out: %Control): 76% | remaining binding at 1 µM ([1]; read-out: %Control @1000nM): 76% | difference in %Control versus compound Ib at 1 µM ([2]; @1000nM): 47% | remaining binding at 1 µM ([2]; @1000nM, read-out: %Control): 61% | remaining binding at 1 µM ([2]; read-out: %Control @1000nM): 61% | %Control difference versus compound Ib at 1 µM ([3]; @1000nM): 4% | remaining binding at 1 µM ([3]; @1000nM, read-out: %Control): 84% | remaining binding at 1 µM ([3]; read-out: %Control @1000nM): 84% | difference in %Control from compound Ib at 1 µM ([13]; @1000nM): 95.4% | remaining binding at 1 µM ([13]; @1000nM, read-out: %Control): 96% | remaining binding at 1 µM ([13]; read-out: %Control @1000nM): 96% | difference in %Control versus compound Ib at 1 µM ([4]; @1000nM): -12% | remaining binding at 1 µM ([4]; @1000nM, read-out: %Control): 88% | remaining binding at 1 µM ([4]; read-out: %Control @1000nM): 88% | %Control difference from compound Ib at 1 µM ([5]; @1000nM): 9% | remaining binding at 1 µM ([5]; @1000nM, read-out: %Control): 100% | remaining binding at 1 µM ([5]; read-out: %Control @1000nM): 100% | difference in %Control from compound Ib at 1 µM ([6]; @1000nM): 61% | remaining binding at 1 µM ([6]; @1000nM, read-out: %Control): 88% | remaining binding at 1 µM ([6]; read-out: %Control @1000nM): 88% | difference in %Control from compound Ib at 1 µM ([7]; @1000nM): 94.5% | remaining binding at 1 µM ([7]; @1000nM, read-out: %Control): 100% | remaining binding at 1 µM ([7]; read-out: %Control @1000nM): 100% | inhibition at 1 µM [7]: < 1% | difference in %Control versus compound Ib at 1 µM ([8]; @1000nM): 20% | remaining binding at 1 µM ([8]; @1000nM, read-out: %Control): 61% | remaining binding at 1 µM ([8]; read-out: %Control @1000nM): 61% | remaining binding at 1 µM ([9]; @1000nM, read-out: %Control): 100% | remaining binding at 1 µM ([9]; read-out: %Control @1000nM): 100% | remaining binding at 1 µM ([10]; @1000nM, read-out: %Control): 88% | remaining binding at 1 µM ([10]; read-out: %Control @1000nM): 88% | difference in %Control versus compound Ib at 1 µM ([11]; @1000nM, TRKB): -17% | remaining binding at 1 µM [11, 14]: 75% | remaining binding at 1 µM [11, 15]: 75%

CCOC(=O)c1cnc(S(C)(=O)=O)nc1N1CCC[C@@H](n2nc(-c3ccc(Oc4ccccc4)cc3)c3c(N)ncnc32)C1 [Compound 8c, Ethyl (R)-4-(3-(4-Amino-3-(4-phenoxyphenyl)-1H-pyrazolo[3,4-d]pyrimidin-1-yl)piperidin-1-yl)-2-(methylsulfonyl)pyrimidine-5-carboxylate]
difference in %Control from reference Ib at 1 µM ([1]; @1000nM): 17% | remaining binding at 1 µM ([1]; @1000nM, read-out: %Control): 81% | remaining binding at 1 µM ([1]; read-out: %Control @1000nM): 81% | difference in %Control versus compound Ib at 1 µM ([2]; @1000nM): 41% | remaining binding at 1 µM ([2]; @1000nM, read-out: %Control): 55% | remaining binding at 1 µM ([2]; read-out: %Control @1000nM): 55% | %Control difference versus compound Ib at 1 µM ([3]; @1000nM): -3% | remaining binding at 1 µM ([3]; @1000nM, read-out: %Control): 77% | remaining binding at 1 µM ([3]; read-out: %Control @1000nM): 77% | difference in %Control from compound Ib at 1 µM ([13]; @1000nM): 93.4% | remaining binding at 1 µM ([13]; @1000nM, read-out: %Control): 94% | remaining binding at 1 µM ([13]; read-out: %Control @1000nM): 94% | difference in %Control versus compound Ib at 1 µM ([4]; @1000nM): -2% | remaining binding at 1 µM ([4]; @1000nM, read-out: %Control): 98% | remaining binding at 1 µM ([4]; read-out: %Control @1000nM): 98% | %Control difference from compound Ib at 1 µM ([5]; @1000nM): 9% | remaining binding at 1 µM ([5]; @1000nM, read-out: %Control): 100% | remaining binding at 1 µM ([5]; read-out: %Control @1000nM): 100% | difference in %Control from compound Ib at 1 µM ([6]; @1000nM): 73% | remaining binding at 1 µM ([6]; @1000nM, read-out: %Control): 100% | remaining binding at 1 µM ([6]; read-out: %Control @1000nM): 100% | difference in %Control from compound Ib at 1 µM ([7]; @1000nM): 94.5% | remaining binding at 1 µM ([7]; @1000nM, read-out: %Control): 100% | remaining binding at 1 µM ([7]; read-out: %Control @1000nM): 100% | inhibition at 1 µM [7]: < 1% | difference in %Control versus compound Ib at 1 µM ([8]; @1000nM): 52% | remaining binding at 1 µM ([8]; @1000nM, read-out: %Control): 93% | remaining binding at 1 µM ([8]; read-out: %Control @1000nM): 93% | remaining binding at 1 µM ([9]; @1000nM, read-out: %Control): 100% | remaining binding at 1 µM ([9]; read-out: %Control @1000nM): 100% | remaining binding at 1 µM ([10]; @1000nM, read-out: %Control): 73% | remaining binding at 1 µM ([10]; read-out: %Control @1000nM): 73% | difference in %Control versus compound Ib at 1 µM ([11]; @1000nM, TRKB): -15% | remaining binding at 1 µM [11, 14]: 77% | remaining binding at 1 µM [11, 15]: 77%
